Assay results reported in patent US6046231A, “Use of 4'-bromoflavone in a cancer chemopreventative composition and method” (The Board of Trustees of the University of Illinois, priority 1999, dated 2000).
Entries after “also recorded” stand apart in the source; their conditions may differ.

Legend:
[1] = system: GST Ya (α class); assay: Western blot of GST Ya (α-type) expression in H4IIE cells; type: cell-based, rat; conditions: for GST Ya (α) induction: H4IIE cells
Procedure: Western Blot Analysis Glutathione S-transferase Expression. Cultured H4IIE rat hepatoma cells were treated with test agent with various concentrations or various time points. […] Cells were harvested using SDS lysis buffer (20 mM Tris-Cl, pH 6.8, containing 0.4% SDS (w/v), 4% glycerol, 0.24 M β-mercaptoethanol, and 0.5% bromphenol) and the lysates were boiled for 5 minutes, then stored at -20° C. An aliquot of lysate was used for protein determination using a bicichoninic acid protein assay kit with BSA as a standard. Equivalent amounts of protein were electrophoresed by SDS-PAGE on precast 12.5% Tris-glycine acrylamide gels (Novex, San Diego, Calif.), then transferred to polyvinylidene difluoride (PDVF) membranes. Nonspecific binding sites were blocked with 10% nonfat dry milk and blotting was performed with goat polyclonal antirat GSTYa (α class) IgG or antirat, GSTYb (μ class) IgG and analyzed by alkaline phosphatase-conjugated antigoat IgG secondary antibody (Oxford Biomed Research, Inc.) and quantified using an AP 20 Alkaline Phosphatase Kit detection system (Oxford Biomed Research, Inc.).
Induction of Expression of Glutathione S-transferase Ya (α-type) and Yb (μ-type) in Cell Cultures. […] To date, the superfamily of mammalian cytosolic GST isozymes has been defined genetically to consist of four classes; α, μ, π, and θ, which differ in tissue-specificexpression and distribution, as well as substrate specificity. […] Cultured H4IIE cells were treated either with 10 μM of 4'-BF (FIG. 7B) or sulforaphane for 0, 2, 4, 8, 16, 24, and 48 hours for a time-dependent study, or with 0.16, 0.8, 4, 10, 20, and 50 μM of 4'-BF (FIG. 7A) or sulforaphane for 24 hr for a dose-dependent study (FIG. 7A). The expressions of two major detoxification isoforms of GSTs (GST Ya: α-type, and GST Yb: μ-type) mediated by 4'-BF or sulforaphane were investigated in H4EII rat hepatoma cells using Western blotting technique.

[2] = system: MCF-7 cells (B[α]P-DNA adducts); assay: Binding of metabolically activated [3H]B[α]P to DNA of cultured MCF-7 cells; type: cell-based; conditions: Homo sapiens, MCF7, read-out: IC50, formation of B[α]P-DNA adducts, MCF-7
Procedure: Effect of 4'-BF on the Binding of Metabolically Activated [^3 H]B[α]P to DNA of Cultured Cells. HepG2 cells or MCF-7 cells were plated at a density of 1×10^6 cells/dish in 6 cm Petri dishes and allowed to incubate for 18 hours. Fresh media containing test samples were added to the cells 2 hours prior to the addition of 1 μM [^3 H]B[α]P (10 Ci/mmol) The test compound and tritiated carcinogen then were incubated for 6 hours. Following incubation, genomic DNA was extracted by the method described by Sharma et al., with minor modifications. Briefly, the cells were washed three times with PBS and harvested by incubation with 0.5 ml of proteinase K (100 μg/ml) in 0.2 M Tris-0.1 M EDTA (pH 8.5) for 10 min at 37° C. The cells were gently scraped from the dishes, transferred to 50 μl of 10% SDS solution, and incubated for 3 hours at 55° C. […] An aliquot of harvested DNA was used for measuring the relative absorbencies at 260 and 280 nm (A2360 nm/A2380 nm=1.7-1.9), and the DNA content was determined by absorbance at 260 nm (1 A2360 nm unit=50 μg). The remaining sample was used for the determination of radioactivity. All experiments were performed in triplicate; percentage inhibition of carcinogen-DNA binding mediated by test samples was calculated as follows: % inhibition=[1-(dpm per μg DNA test cells/dpm per μg DNA control cells)]×100.

[3] = system: DMBA-induced mammary tumors; assay: Inhibition of DMBA-induced mammary carcinogenesis in rats; type: in vivo, female Sprague Dawley rat; conditions: for tumor multiplicity (FIG. 9): control 2.63; for mammary tumor multiplicity: control 2.75; for mammary tumor incidence: control 88.9%; for tumor incidence (FIG. 9): control 89.5
Procedure: Inhibition of DMBA-induced Mammary Carcinogensis in Rats. On the basis of a 3-week feeding study, maximum tolerated doses were evaluated, and suitable doses were selected for the study of inhibition of DMBA-induced mammary carcinogenesis in rats. Virgin, female Sprague Dawley rats were obtained from Harlan/Sprague-Dawley at 35 days of age. All animals were placed on a diet of Teklad 4% Rat/Mouse chow at this time. After a quarantine period of 1 week, at 42 days of age, the animals were randomized by weight into six groups and placed on the appropriate experimental diet containing 2000 and 4000 mg 4'-bromoflavone/kg diet. At 50 days of age, the animals received a single i.g. dose of 15 mg of DMBA in sesame oil (or vehicle only) following an overnight fast. The rats were maintained on the 4'-bromoflavone diet for one additional week, and then returned to the basal diet without test agent at 57 days of age. During the experiment, all animals were weighed weekly. Palpation for mammary tumors began 3 weeks after the animals received the DMBA, and continued until termination of the study (120 days post DMBA). The date of appearance and location of all tumors was recorded. Animals were observed twice daily to assess their general health. Moribund animals were sacrificed by CO2 asphyxiation. Moribund animals or animals found dead were necropsied immediately. At the termination of the experiment, all mammary tumors were excised and weighed, and mean tumor weight was established. Tumors for Group 2-5 were frozen. The abdominal/inguinal glands of Group 8 were disected free of lymph nodes; one side was frozen, the other side was fixed. Incidence was evaluated with Fisher's exact test and the Logrank test was used for tumor incidence rate. Tumor multiplicity was calculated using Armitage's test for trends in proportions. Latency and tumor weight were evaluated by an unpaired t-test. Survival was analyzed with log-rank analysis.
Inhibition of DMBA-induced Mammary Tumor Carcinogenesis in Rat. Maximum dose tolerance (MDT) studies (data not included) were performed prior to conducting the chemopreventative studies of 4'-BF in animals. Briefly, a test agent was examined in a three-week study to determine the maximum dose that can be administered without causing suppression of body weight gain or inducing other gross manifestations of toxicity and to determine the effective dose in term of induction of phase II detoxifying enzymes. According to the MDT study, two doses of 4'-BF (2000 and 4000 mg/kg diet) were used for the chemopreventative studies.

O=c1cc(-c2ccc(Br)cc2)oc2ccccc12 [4'-Bromoflavone]
maximum induction time, GST Ya ([1]; 10 μM, 0-48 h): 16 to 24 h
maximum induction concentration, GST Ya ([1]; 0.16-50 μM, 24 h): 10 to 20 µM
GST Ya (α) induction [1]: effectively induced
GST Ya (α) induction ([1]; listed as 4'-BF): induced by 4'-BF in a time, dose-dependent manner
IC50 [2]: ~1700 nM
tumor multiplicity (FIG. 9) ([3]; 2000 mg/kg diet): 0.65 tumors/rat
mammary tumor multiplicity ([3]; 2000 mg/kg diet): 0.20
mammary tumor incidence ([3]; 2000 mg/kg diet): 25%
tumor incidence (FIG. 9) ([3]; 2000 mg/kg diet): 30%
tumor multiplicity (FIG. 9) ([3]; 4000 mg/kg diet): 0.20 tumors/rat
mammary tumor multiplicity ([3]; 4000 mg/kg diet): 0.15
mammary tumor incidence ([3]; 4000 mg/kg diet): 15%
tumor incidence (FIG. 9) ([3]; 4000 mg/kg diet): 20%
tumor latency ([3]; 2000 or 4000 mg/kg diet, listed as 4'-BF): enhanced greatly; also recorded: greatly increased the tumor latency (P<0.001); also recorded: significantly increased (P<0.01)
incidence and multiplicity of mammary tumors ([3]; DMBA-induced): significantly inhibited
